Test [1] has as its target Serine/threonine-protein kinase 25 (Homo sapiens) (UniProt O00506). Description: Selectivity interaction (KinomeScan (DiscoverX)) EUB0000607a STK25. As to conditions: at 10 µM.
The target of test [2] is RAF proto-oncogene serine/threonine-protein kinase (Homo sapiens) (UniProt P04049). Nature of the test: Selectivity interaction (KinomeScan (DiscoverX)) EUB0000666a RAF1. The note with it: at 10 µM.
Test [3] concerns the target Tyrosine-protein kinase JAK2 (Homo sapiens, UniProt O60674). Description: Selectivity interaction (KinomeScan (DiscoverX)) EUB0000229b JAK2. The note with it: at 10 µM.
The target of test [4] is T1, Serine/threonine-protein kinase Nek11 (Homo sapiens) (UniProt Q8NG66).
T1 sequence (whole entry): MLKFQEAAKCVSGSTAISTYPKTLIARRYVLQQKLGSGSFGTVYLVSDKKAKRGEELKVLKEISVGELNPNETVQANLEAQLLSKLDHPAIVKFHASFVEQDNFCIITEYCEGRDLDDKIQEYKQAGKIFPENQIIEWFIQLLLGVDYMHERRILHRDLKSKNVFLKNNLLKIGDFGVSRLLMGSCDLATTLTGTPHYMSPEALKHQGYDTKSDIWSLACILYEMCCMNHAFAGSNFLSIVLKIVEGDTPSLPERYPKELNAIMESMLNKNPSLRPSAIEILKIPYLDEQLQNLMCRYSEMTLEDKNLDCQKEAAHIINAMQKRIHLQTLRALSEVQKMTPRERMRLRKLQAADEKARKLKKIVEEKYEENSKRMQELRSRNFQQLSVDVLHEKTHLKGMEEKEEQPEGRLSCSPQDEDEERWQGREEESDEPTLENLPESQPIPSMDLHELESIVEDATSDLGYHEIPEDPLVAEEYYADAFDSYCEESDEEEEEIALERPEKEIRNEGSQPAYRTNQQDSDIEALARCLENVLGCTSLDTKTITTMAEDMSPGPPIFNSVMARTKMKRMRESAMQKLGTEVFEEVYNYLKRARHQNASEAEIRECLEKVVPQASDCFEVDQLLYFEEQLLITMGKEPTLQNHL
Nature of the test: Selectivity interaction (KinomeScan (DiscoverX)) EUB0001079a NEK11. As to conditions: at 1 µM.

Test [5] concerns the target T2, Serine/threonine-protein kinase D2 (Homo sapiens) (UniProt Q9BZL6).
T2 sequence (whole entry): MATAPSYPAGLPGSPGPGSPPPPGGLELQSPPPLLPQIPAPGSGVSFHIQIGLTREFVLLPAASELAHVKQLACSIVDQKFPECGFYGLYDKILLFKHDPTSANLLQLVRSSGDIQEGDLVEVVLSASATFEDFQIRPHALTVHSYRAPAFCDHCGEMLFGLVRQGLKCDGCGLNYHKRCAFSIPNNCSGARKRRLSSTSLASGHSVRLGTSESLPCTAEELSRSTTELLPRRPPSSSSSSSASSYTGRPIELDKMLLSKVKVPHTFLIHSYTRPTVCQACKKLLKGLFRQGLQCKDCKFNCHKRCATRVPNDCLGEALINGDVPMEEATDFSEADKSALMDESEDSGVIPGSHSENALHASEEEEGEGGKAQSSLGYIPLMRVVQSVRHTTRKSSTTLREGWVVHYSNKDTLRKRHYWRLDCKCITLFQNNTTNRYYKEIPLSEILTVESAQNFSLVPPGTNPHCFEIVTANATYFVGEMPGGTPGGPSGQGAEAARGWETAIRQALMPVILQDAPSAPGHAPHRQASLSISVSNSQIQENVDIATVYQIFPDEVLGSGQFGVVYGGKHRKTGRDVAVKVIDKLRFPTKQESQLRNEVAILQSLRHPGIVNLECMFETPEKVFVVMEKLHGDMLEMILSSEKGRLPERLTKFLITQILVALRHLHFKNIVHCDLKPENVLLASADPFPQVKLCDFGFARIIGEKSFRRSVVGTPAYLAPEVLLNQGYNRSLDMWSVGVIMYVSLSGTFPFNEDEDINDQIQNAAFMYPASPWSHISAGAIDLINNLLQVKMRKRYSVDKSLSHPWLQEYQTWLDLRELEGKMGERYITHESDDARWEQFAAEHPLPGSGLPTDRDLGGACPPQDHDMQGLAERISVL
Description: Selectivity interaction (ActivX KiNativ screen (kinase selectivity in THP-1 cell lysates)) EUB0000639a PRKD2. The format is subcellular. As to conditions: lysate, at 1 µM.

Test [6] addresses Serine/threonine-protein kinase PRP4 homolog (Homo sapiens) (UniProt Q13523). Description: Selectivity interaction (ActivX KiNativ screen (kinase selectivity in THP-1 cell lysates)) EUB0000639a PRPF4. Format: subcellular. As to conditions: lysate, at 0.01 µM.
Test [7] concerns the target CDK3/cyclin E (Homo sapiens) (UniProt P24864+O96020+Q00526). Description: Selectivity interaction (Millipore kinase profiler) EUB0000124b CDK3. The note with it: at 10 µM. Format: protein-complex assay.
Test [8] concerns the target Serine/threonine-protein kinase PAK 1 (Homo sapiens) (UniProt Q13153). Description: Selectivity interaction (KinomeScan (DiscoverX)) EUB0000092b PAK1. The note with it: at 10 µM.
The target in test [9] is T3, Ephrin type-B receptor 3 (Homo sapiens) (UniProt P54753).
T3 sequence (whole entry): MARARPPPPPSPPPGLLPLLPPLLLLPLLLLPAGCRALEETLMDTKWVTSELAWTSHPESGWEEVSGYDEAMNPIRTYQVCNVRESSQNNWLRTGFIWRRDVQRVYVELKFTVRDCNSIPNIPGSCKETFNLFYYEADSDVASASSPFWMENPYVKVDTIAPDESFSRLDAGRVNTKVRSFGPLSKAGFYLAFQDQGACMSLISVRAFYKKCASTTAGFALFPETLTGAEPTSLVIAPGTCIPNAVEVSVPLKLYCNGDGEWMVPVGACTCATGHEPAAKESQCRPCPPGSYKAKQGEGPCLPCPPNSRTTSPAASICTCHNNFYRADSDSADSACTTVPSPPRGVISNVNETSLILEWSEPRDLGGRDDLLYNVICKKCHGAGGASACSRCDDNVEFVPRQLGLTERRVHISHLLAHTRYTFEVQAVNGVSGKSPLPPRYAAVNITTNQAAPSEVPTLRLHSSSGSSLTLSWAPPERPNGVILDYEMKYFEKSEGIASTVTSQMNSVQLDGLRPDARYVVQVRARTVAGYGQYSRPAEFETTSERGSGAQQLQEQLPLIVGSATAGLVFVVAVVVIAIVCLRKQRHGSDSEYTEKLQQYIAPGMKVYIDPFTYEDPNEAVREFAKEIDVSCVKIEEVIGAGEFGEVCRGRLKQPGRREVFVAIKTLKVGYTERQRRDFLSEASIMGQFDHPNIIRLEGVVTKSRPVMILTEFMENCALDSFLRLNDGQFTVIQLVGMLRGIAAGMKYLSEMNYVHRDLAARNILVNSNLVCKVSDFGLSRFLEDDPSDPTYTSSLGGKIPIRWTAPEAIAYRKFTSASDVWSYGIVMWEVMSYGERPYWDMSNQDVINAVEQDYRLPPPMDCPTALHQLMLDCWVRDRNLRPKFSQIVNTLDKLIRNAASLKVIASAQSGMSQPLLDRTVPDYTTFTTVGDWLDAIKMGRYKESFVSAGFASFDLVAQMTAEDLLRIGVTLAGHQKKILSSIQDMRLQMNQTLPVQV
Description: Selectivity interaction (KinomeScan (DiscoverX)) EUB0000595a EPHB3. As to conditions: at 10 µM.

Our source for the % of control, % binding and % of inhibition values is ChEMBL document CHEMBL5465560, “Selectivity Literature for EUbOPEN Chemogenomic Library” (2024).

Sequence of Serine/threonine-protein kinase PAK 1 (Homo sapiens) (Q13153 whole entry): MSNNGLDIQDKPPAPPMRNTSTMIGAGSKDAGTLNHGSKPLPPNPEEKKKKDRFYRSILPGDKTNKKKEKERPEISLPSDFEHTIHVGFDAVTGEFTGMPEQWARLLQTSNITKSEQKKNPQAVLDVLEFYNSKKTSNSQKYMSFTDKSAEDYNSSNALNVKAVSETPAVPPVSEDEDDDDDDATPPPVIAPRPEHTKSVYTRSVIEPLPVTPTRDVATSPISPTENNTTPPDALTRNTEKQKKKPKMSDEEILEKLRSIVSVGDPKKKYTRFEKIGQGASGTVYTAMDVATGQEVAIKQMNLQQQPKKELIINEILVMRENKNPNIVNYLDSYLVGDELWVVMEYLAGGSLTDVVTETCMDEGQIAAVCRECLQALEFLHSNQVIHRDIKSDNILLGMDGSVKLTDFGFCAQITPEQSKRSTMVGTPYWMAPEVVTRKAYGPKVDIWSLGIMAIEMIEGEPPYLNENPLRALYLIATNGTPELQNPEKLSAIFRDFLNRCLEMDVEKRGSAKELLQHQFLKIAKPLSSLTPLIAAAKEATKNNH
Sequence of Serine/threonine-protein kinase PRP4 homolog (Homo sapiens) (Q13523 whole entry): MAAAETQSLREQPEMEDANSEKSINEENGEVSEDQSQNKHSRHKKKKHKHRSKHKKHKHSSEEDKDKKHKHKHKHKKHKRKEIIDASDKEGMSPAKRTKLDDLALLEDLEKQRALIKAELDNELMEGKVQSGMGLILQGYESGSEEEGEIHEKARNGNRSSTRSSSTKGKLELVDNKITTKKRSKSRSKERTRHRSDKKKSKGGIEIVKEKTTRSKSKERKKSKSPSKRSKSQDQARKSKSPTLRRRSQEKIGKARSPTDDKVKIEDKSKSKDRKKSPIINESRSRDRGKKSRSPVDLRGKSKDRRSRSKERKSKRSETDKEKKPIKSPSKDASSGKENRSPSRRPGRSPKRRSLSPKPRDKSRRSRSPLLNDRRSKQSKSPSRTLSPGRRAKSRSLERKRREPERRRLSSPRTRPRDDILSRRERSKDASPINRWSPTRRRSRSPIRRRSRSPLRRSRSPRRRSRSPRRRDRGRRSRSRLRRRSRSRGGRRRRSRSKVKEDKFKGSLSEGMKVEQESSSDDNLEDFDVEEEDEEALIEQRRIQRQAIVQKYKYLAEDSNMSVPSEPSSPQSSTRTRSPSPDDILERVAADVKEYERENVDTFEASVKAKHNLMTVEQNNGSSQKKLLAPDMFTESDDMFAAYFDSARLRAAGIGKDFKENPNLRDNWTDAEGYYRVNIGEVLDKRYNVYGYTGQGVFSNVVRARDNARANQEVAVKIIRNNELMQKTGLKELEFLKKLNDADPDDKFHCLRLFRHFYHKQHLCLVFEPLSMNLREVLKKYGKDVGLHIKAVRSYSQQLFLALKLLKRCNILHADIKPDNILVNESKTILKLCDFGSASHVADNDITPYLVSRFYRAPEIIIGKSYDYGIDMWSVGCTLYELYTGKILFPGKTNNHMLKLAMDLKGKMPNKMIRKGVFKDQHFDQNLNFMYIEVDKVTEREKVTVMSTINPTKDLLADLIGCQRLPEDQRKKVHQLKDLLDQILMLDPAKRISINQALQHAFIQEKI
Sequence of Serine/threonine-protein kinase 25 (Homo sapiens) (O00506 whole entry, looked up): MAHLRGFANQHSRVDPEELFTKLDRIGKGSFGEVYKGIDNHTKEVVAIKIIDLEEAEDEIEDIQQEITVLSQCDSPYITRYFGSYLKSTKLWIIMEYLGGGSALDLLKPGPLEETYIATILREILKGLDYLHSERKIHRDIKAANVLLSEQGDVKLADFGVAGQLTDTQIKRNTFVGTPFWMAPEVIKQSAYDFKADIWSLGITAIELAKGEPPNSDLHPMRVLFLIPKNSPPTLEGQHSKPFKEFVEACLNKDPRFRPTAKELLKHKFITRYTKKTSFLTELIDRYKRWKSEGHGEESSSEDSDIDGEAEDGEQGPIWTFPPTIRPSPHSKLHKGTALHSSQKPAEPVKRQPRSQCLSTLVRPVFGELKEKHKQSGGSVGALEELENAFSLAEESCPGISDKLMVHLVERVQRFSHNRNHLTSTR
Sequence of Tyrosine-protein kinase JAK2 (O60674 whole entry): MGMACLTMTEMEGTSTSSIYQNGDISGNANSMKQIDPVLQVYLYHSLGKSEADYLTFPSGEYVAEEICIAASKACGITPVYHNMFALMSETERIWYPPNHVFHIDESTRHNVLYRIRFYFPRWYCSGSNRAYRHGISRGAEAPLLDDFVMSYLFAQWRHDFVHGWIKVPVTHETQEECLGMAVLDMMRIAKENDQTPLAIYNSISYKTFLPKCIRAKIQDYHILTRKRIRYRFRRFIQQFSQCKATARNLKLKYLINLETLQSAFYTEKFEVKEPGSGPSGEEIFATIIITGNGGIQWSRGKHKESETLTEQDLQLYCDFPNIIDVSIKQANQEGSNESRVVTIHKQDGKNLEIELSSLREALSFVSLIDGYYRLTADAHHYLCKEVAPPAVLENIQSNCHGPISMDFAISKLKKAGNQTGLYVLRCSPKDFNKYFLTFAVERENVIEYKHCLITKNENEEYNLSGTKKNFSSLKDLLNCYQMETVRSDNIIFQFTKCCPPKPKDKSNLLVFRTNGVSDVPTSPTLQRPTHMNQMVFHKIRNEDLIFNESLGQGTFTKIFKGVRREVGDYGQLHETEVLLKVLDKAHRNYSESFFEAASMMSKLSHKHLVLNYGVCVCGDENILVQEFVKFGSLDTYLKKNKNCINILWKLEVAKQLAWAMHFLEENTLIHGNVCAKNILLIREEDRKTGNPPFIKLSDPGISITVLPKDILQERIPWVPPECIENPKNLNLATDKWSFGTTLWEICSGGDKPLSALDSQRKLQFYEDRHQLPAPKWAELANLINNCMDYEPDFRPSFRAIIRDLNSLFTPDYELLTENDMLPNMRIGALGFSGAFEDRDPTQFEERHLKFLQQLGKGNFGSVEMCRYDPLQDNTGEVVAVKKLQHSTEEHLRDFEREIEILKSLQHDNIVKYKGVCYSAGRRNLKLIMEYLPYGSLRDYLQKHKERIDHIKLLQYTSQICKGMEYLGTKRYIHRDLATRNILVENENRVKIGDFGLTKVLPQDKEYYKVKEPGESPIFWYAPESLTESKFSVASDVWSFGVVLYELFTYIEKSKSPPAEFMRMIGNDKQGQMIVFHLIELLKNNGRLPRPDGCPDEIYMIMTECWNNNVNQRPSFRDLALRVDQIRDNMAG
Sequence of RAF proto-oncogene serine/threonine-protein kinase (Homo sapiens) (P04049 whole entry): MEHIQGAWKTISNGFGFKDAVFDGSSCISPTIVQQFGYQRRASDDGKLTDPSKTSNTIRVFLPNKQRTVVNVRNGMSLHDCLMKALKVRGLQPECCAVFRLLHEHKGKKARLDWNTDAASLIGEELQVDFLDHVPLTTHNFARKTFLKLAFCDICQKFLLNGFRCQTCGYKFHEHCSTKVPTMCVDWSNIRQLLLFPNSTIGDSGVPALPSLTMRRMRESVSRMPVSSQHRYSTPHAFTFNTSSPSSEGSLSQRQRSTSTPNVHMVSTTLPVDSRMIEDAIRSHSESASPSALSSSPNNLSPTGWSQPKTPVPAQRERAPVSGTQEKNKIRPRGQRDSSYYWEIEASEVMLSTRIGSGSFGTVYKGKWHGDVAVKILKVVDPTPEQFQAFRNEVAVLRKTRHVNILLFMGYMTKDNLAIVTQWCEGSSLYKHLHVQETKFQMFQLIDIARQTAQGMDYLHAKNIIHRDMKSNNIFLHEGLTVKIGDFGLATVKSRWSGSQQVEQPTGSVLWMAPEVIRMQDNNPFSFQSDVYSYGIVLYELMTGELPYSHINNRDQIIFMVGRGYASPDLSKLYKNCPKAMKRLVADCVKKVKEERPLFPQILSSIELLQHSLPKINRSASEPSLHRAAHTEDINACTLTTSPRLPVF
Sequence of CDK3/cyclin E (Homo sapiens) (O96020 whole entry, looked up): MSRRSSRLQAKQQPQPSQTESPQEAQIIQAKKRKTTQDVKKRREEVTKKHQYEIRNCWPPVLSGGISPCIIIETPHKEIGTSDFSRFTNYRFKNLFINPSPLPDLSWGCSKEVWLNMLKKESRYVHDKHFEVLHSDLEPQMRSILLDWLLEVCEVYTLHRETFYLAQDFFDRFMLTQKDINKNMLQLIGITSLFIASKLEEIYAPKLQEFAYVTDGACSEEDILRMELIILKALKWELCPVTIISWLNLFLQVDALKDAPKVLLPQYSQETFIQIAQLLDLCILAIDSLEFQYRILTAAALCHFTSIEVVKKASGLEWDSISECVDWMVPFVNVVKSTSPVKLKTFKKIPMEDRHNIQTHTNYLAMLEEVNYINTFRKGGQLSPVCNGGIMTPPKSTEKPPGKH
Sequence of CDK3/cyclin E (Homo sapiens) (P24864 whole entry, looked up): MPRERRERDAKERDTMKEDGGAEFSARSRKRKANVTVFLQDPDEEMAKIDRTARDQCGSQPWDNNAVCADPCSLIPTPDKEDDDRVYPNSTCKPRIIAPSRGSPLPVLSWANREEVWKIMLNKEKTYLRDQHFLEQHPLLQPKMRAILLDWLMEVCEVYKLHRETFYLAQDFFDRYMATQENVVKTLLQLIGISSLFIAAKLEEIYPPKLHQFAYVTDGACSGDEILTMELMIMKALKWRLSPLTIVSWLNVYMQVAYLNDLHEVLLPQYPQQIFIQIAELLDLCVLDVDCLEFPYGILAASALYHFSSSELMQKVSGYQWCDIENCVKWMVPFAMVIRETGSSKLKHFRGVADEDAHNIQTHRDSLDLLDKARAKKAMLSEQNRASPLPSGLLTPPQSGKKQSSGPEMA
Sequence of CDK3/cyclin E (Homo sapiens) (Q00526 whole entry, looked up): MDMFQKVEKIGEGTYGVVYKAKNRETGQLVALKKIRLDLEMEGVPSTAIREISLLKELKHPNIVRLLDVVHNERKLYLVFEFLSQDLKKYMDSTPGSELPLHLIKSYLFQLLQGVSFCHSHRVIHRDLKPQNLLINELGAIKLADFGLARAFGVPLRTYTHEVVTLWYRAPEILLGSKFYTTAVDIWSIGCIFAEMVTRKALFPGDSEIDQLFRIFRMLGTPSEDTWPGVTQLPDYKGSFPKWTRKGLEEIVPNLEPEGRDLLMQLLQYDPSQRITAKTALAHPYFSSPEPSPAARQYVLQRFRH

Take `CNC(=O)Nc1ccc(-c2nc(N3CC4CCC(C3)O4)c3cnn(C4CCC5(CC4)OCCO5)c3n2)cc1`: in test [1], the % of control was found to be 91%. Consider `O=C(NOC[C@H](O)CO)c1ccc(F)c(F)c1Nc1ccc(I)cc1F`, for which the % of control in test [2] worked out at 99%. As for `COc1cc(N(C)c2ccnc3ccc(C(F)(F)F)cc23)cc(OC)c1OC`, in test [3], the % binding turned out to be 97%. As for `Nc1cnc(N2CCc3cc(S(=O)(=O)Nc4c(F)cc(Cl)cc4F)cc(N4CCCC4=O)c32)nc1` [TP-020n], the % of control in test [4] turned out to be 100%. As to `CC[C@@H]1[C@H](F)C(=O)N[C@@H]1COc1nccc2cc(C(N)=O)c(OC)cc12` [ZIMLOVISERTIB], the % of inhibition in test [5] was found to be 8%; in test [6] it was 11%. In [7], `CC(=O)Nc1cccc(-n2c(=O)n(C3CC3)c(=O)c3c(Nc4ccc(I)cc4F)n(C)c(=O)c(C)c32)c1` returned a % of control of 101%. Turning to `CCC(=O)N1CCN(c2ccc(-n3c(=O)ccc4cnc5ccc(-c6cnc7ccccc7c6)cc5c43)cc2C(F)(F)F)CC1`, the % of control in [8] was 73%. Compound `COCC(=O)NC/C=C/c1ccc2ncnc(Nc3ccc(Oc4ccc(C)nc4)c(C)c3)c2c1` [CP-724714] registered a % of control in test [9] of 86%.
